Results on 20 molecules are retold here after patent US20230077362A1 (CORTEVA AGRISCIENCE LLC, priority 2019, published 2023).

In assay [1] the test system is Beet Armyworm (Spodoptera exigua) ("BAW"), second instar larvae. Briefly: Bioassay on beet armyworm (BAW), 128-well diet tray assay. Format: in vivo. The note with it: Spodoptera exigua, read-out: BAW (Biological Results, rating). The method, boiled down: (§1)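 Sealed trays, 25° C., 14:10 light:dark, 5–7 d. Per-well % mortality recorded, mean of eight wells reported.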

Assay [2] concerns Cabbage Looper (Trichoplusia ni) ("CL"), second instar larvae. Briefly: Bioassay on cabbage looper (CL), 128-well diet tray assay. The conditions noted are these: Trichoplusia ni, read-out: CL (Biological Results, rating). Type of assay: in vivo. The method, boiled down:
as §1

As to `COc1ccc(C(C)C)c(N2C(=O)CS/C2=N\C(=O)Nc2ccc(-c3ncn(-c4ccc(OC(F)(F)F)cn4)n3)cc2F)c1` [Compound J239, (Z)-1-(2-Fluoro-4-(1-(5-(trifluoromethoxy)pyridin-2-yl)-1H-1,2,4-triazol-3-yl)phenyl)-3-(3-(2-isopropyl-5-methoxyphenyl)-4-oxothiazolidin-2-ylidene)urea], the pest or weed control at 50 µg/cm2 in assay [1] and in assay [2] was 50 to 100% in each case.
On to `COC(C)c1ccc(C)cc1N1C(=O)CS/C1=N\C(=O)Nc1ccc(-c2ncn(-c3ccc(OC(F)(F)F)cn3)n2)cc1C` (stereo not shown) [Compound J240, (Z)-1-(3-(2-(1-Methoxyethyl)-5-methylphenyl)-4-oxothiazolidin-2-ylidene)-3-(2-methyl-4-(1-(5-(trifluoromethoxy)pyridin-2-yl)-1H-1,2,4-triazol-3-yl)phenyl)urea], for which the pest or weed control at 50 µg/cm2 in assay [1] and in assay [2] was 50 to 100% throughout.
For `Cc1ccc(COCC(F)(F)F)c(N2C(=O)CS/C2=N\C(=O)Nc2ccc(-c3ncn(-c4ccc(OC(F)(F)F)cn4)n3)cc2C)c1` [Compound J241, (Z)-1-(3-(5-Methyl-2-((2,2,2-trifluoroethoxy)methyl)phenyl)-4-oxothiazolidin-2-ylidene)-3-(2-methyl-4-(1-(5-(trifluoromethoxy)pyridin-2-yl)-1H-1,2,4-triazol-3-yl)phenyl)urea], the pest or weed control at 50 µg/cm2 in assay [1] and in assay [2] was 50 to 100% each time.
Regarding `CC(C)c1ccc(N(C)C)cc1N1C(=O)CS/C1=N\C(=O)Nc1ccc(-c2ncn(-c3ccc(OC(F)(F)F)cc3)n2)cc1C#N` [Compound J242, (Z)-1-(2-Cyano-4-(1-(4-(trifluoromethoxy)phenyl)-1H-1,2,4-triazol-3-yl)phenyl)-3-(3-(5-(dimethylamino)-2-isopropylphenyl)-4-oxothiazolidin-2-ylidene)urea], the pest or weed control at 50 µg/cm2 in assay [1] and in assay [2] was 50 to 100% throughout.
As to `Cc1ccc(OCCC(F)(F)F)c(N2C(=O)CS/C2=N\C(=O)Nc2ccc(-c3ncn(-c4ccc(OC(F)(F)F)cc4)n3)cc2C#N)c1` [Compound J243, (Z)-1-(2-Cyano-4-(1-(4-(trifluoromethoxy)phenyl)-1H-1,2,4-triazol-3-yl)phenyl)-3-(3-(5-methyl-2-(3,3,3-trifluoropropoxy)phenyl)-4-oxothiazolidin-2-ylidene)urea], the pest or weed control at 50 µg/cm2 in assay [1] and in assay [2] was 50 to 100% throughout.
As to `Cc1ccc(C(F)(F)F)c(N2C(=O)CS/C2=N\C(=O)Nc2ccc(-c3ncn(-c4ccc(OC(F)(F)F)cc4)n3)cc2C#N)c1` [Compound J244, (Z)-1-(2-Cyano-4-(1-(4-(trifluoromethoxy)phenyl)-1H-1,2,4-triazol-3-yl)phenyl)-3-(3-(5-methyl-2-(trifluoromethyl)phenyl)-4-oxothiazolidin-2-ylidene)urea], the pest or weed control at 50 µg/cm2 in assay [1] and in assay [2] was 50 to 100% in each case.
For `Cc1ccc(COCC(F)(F)F)c(N2C(=O)CS/C2=N\C(=O)Nc2ccc(-c3ncn(-c4ccc(OC(F)(F)F)cc4)n3)cc2C#N)c1` [Compound J245, (Z)-1-(2-Cyano-4-(1-(4-(trifluoromethoxy)phenyl)-1H-1,2,4-triazol-3-yl)phenyl)-3-(3-(5-methyl-2-((2,2,2-trifluoroethoxy)methyl)phenyl)-4-oxothiazolidin-2-ylidene)urea], the pest or weed control at 50 µg/cm2 in assay [1] and in assay [2] was 50 to 100% in each case.
For the molecule `COc1ccc(C(C)C)c(N2C(=O)CS/C2=N\C(=O)Nc2ccc(-c3ncn(-c4ccc(OC(F)(F)F)cc4)n3)cc2C#N)c1` [Compound J246, (Z)-1-(2-Cyano-4-(1-(4-(trifluoromethoxy)phenyl)-1H-1,2,4-triazol-3-yl)phenyl)-3-(3-(2-isopropyl-5-methoxyphenyl)-4-oxothiazolidin-2-ylidene)urea], the pest or weed control at 50 µg/cm2 in assay [1] and in assay [2] was 50 to 100% each time.
As for `CCCc1ccc(N(C)C)cc1N1C(=O)CS/C1=N\C(=O)Nc1ccc(-c2ncn(-c3ccc(OC(F)(F)F)cc3)n2)cc1C#N` [Compound J247, (Z)-1-(2-Cyano-4-(1-(4-(trifluoromethoxy)phenyl)-1H-1,2,4-triazol-3-yl)phenyl)-3-(3-(5-(dimethylamino)-2-propylphenyl)-4-oxothiazolidin-2-ylidene)urea], the pest or weed control at 50 µg/cm2 in assay [1] and in assay [2] was 50 to 100% throughout.
With `CCCc1ccc(C)cc1N1C(=O)CS/C1=N\C(=O)Nc1ccc(-c2ncn(-c3ccc(OC(F)(F)F)cc3)n2)cc1C#N` [Compound J248, (Z)-1-(2-Cyano-4-(1-(4-(trifluoromethoxy)phenyl)-1H-1,2,4-triazol-3-yl)phenyl)-3-(3-(5-methyl-2-propylphenyl)-4-oxothiazolidin-2-ylidene)urea], the pest or weed control at 50 µg/cm2 in assay [1] and in assay [2] was 50 to 100% in each case.
Consider `Cc1ccc(COCC(F)(F)F)c(N2C(=O)CS/C2=N\C(=O)Nc2ccc(-c3ncn(-c4ccc(OC(F)(F)F)cn4)n3)cc2Cl)c1` [Compound J249, (Z)-1-(2-Chloro-4-(1-(5-(trifluoromethoxy)pyridin-2-yl)-1H-1,2,4-triazol-3-yl)phenyl)-3-(3-(5-methyl-2-((2,2,2-trifluoroethoxy)methyl)phenyl)-4-oxothiazolidin-2-ylidene)urea], for which the pest or weed control at 50 µg/cm2 in assay [1] and in assay [2] was 50 to 100% in each case.
In the case of `COC(C)c1ccc(C)cc1N1C(=O)CS/C1=N\C(=O)Nc1ccc(-c2ncn(-c3ccc(OC(F)(F)F)cn3)n2)cc1Cl` (stereo not shown) [Compound J250, (Z)-1-(2-Chloro-4-(1-(5-(trifluoromethoxy)pyridin-2-yl)-1H-1,2,4-triazol-3-yl)phenyl)-3-(3-(2-(1-methoxyethyl)-5-methylphenyl)-4-oxothiazolidin-2-ylidene)urea], the pest or weed control at 50 µg/cm2 in assay [1] and in assay [2] was 50 to 100% each time.
With `Cc1cc(-c2ncn(-c3ccc(OC(F)(F)F)cn3)n2)ccc1NC(=O)/N=C1\SCC(=O)N1c1cc(N(C)C)ccc1C(C)C` [Compound J251, (Z)-1-(3-(5-(Dimethylamino)-2-isopropylphenyl)-4-oxothiazolidin-2-ylidene)-3-(2-methyl-4-(1-(5-(trifluoromethoxy)pyridin-2-yl)-1H-1,2,4-triazol-3-yl)phenyl)urea], the pest or weed control at 50 µg/cm2 in assay [1] and in assay [2] was 50 to 100% each time.
Consider `COc1ccc(C(C)C)c(N2C(=O)CS/C2=N\C(=O)Nc2ccc(-c3ncn(-c4ccc(OC(F)(F)F)cn4)n3)cc2C)c1` [Compound J252, (Z)-1-(3-(2-Isopropyl-5-methoxyphenyl)-4-oxothiazolidin-2-ylidene)-3-(2-methyl-4-(1-(5-(trifluoromethoxy)pyridin-2-yl)-1H-1,2,4-triazol-3-yl)phenyl)urea], for which the pest or weed control at 50 µg/cm2 in assay [1] and in assay [2] was 50 to 100% in each case.
Turning to `CC(C)c1ccc(N(C)C)cc1N1C(=O)CS/C1=N\C(=O)Nc1ccc(-c2ncn(-c3ccc(OC(F)(F)F)cn3)n2)cc1Cl` [Compound J253, (Z)-1-(2-Chloro-4-(1-(5-(trifluoromethoxy)pyridin-2-yl)-1H-1,2,4-triazol-3-yl)phenyl)-3-(3-(5-(dimethylamino)-2-isopropylphenyl)-4-oxothiazolidin-2-ylidene)urea], the pest or weed control at 50 µg/cm2 in assay [1] and in assay [2] was 50 to 100% in each case.
Take `CCCc1ccc(N(C)C)cc1N1C(=O)CS/C1=N\C(=O)Nc1ccc(-c2ncn(-c3ccc(OC(F)(F)F)cn3)n2)cc1C` [Compound J254, (Z)-1-(3-(5-(Dimethylamino)-2-propylphenyl)-4-oxothiazolidin-2-ylidene)-3-(2-methyl-4-(1-(5-(trifluoromethoxy)pyridin-2-yl)-1H-1,2,4-triazol-3-yl)phenyl)urea]: the pest or weed control at 50 µg/cm2 in assay [1] and in assay [2] was 50 to 100% in each case.
Turning to `Cc1ccc(OCCC(F)(F)F)c(N2C(=O)CS/C2=N\C(=O)Nc2ccc(-c3ncn(-c4ccc(OC(F)(F)F)cn4)n3)cc2C)c1` [Compound J255, (Z)-1-(3-(5-Methyl-2-(3,3,3-trifluoropropoxy)phenyl)-4-oxothiazolidin-2-ylidene)-3-(2-methyl-4-(1-(5-(trifluoromethoxy)pyridin-2-yl)-1H-1,2,4-triazol-3-yl)phenyl)urea], the pest or weed control at 50 µg/cm2 in assay [1] and in assay [2] was 50 to 100% throughout.
In the case of `Cc1ccc(OCCC(F)(F)F)c(N2C(=O)CS/C2=N\C(=O)Nc2ccc(-c3ncn(-c4ccc(OC(F)(F)F)cn4)n3)cc2F)c1` [Compound J257, (Z)-1-(2-Fluoro-4-(1-(5-(trifluoromethoxy)pyridin-2-yl)-1H-1,2,4-triazol-3-yl)phenyl)-3-(3-(5-methyl-2-(3,3,3-trifluoropropoxy)phenyl)-4-oxothiazolidin-2-ylidene)urea], the pest or weed control at 50 µg/cm2 in assay [1] and in assay [2] was 50 to 100% throughout.
As to `CCCc1ccc(N(C)C)cc1N1C(=O)CS/C1=N\C(=O)Nc1ccc(-c2ncn(-c3ccc(OC(F)(F)F)cn3)n2)cc1F` [Compound J258, (Z)-1-(3-(5-(Dimethylamino)-2-propylphenyl)-4-oxothiazolidin-2-ylidene)-3-(2-fluoro-4-(1-(5-(trifluoromethoxy)pyridin-2-yl)-1H-1,2,4-triazol-3-yl)phenyl)urea], the pest or weed control at 50 µg/cm2 in assay [1] and in assay [2] was 50 to 100% each time.
Consider `Cc1ccc(C(C)C)c(N2C(=O)CS/C2=N\C(=O)Nc2ccc(-c3ncn(-c4ccc(OC(F)(F)F)cn4)n3)cc2C#N)c1` [Compound J259, (Z)-1-(2-Cyano-4-(1-(5-(trifluoromethoxy)pyridin-2-yl)-1H-1,2,4-triazol-3-yl)phenyl)-3-(3-(2-isopropyl-5-methylphenyl)-4-oxothiazolidin-2-ylidene)urea], for which the pest or weed control at 50 µg/cm2 in assay [1] and in assay [2] was 50 to 100% throughout.
